pIC50: −log10 of the molar value.

As usually defined, the pIC50 is −log10 of the IC50, conventionally taken in molar units.

The experiment deals with T1, N-type calcium channel (NTCC) (Homo sapiens, UniProt Q00975).
T1 construct: host or cells: IMR32 cells differentiated with dibutyryl cAMP and bromodeoxyuridine
T1 sequence (Q00975 whole entry): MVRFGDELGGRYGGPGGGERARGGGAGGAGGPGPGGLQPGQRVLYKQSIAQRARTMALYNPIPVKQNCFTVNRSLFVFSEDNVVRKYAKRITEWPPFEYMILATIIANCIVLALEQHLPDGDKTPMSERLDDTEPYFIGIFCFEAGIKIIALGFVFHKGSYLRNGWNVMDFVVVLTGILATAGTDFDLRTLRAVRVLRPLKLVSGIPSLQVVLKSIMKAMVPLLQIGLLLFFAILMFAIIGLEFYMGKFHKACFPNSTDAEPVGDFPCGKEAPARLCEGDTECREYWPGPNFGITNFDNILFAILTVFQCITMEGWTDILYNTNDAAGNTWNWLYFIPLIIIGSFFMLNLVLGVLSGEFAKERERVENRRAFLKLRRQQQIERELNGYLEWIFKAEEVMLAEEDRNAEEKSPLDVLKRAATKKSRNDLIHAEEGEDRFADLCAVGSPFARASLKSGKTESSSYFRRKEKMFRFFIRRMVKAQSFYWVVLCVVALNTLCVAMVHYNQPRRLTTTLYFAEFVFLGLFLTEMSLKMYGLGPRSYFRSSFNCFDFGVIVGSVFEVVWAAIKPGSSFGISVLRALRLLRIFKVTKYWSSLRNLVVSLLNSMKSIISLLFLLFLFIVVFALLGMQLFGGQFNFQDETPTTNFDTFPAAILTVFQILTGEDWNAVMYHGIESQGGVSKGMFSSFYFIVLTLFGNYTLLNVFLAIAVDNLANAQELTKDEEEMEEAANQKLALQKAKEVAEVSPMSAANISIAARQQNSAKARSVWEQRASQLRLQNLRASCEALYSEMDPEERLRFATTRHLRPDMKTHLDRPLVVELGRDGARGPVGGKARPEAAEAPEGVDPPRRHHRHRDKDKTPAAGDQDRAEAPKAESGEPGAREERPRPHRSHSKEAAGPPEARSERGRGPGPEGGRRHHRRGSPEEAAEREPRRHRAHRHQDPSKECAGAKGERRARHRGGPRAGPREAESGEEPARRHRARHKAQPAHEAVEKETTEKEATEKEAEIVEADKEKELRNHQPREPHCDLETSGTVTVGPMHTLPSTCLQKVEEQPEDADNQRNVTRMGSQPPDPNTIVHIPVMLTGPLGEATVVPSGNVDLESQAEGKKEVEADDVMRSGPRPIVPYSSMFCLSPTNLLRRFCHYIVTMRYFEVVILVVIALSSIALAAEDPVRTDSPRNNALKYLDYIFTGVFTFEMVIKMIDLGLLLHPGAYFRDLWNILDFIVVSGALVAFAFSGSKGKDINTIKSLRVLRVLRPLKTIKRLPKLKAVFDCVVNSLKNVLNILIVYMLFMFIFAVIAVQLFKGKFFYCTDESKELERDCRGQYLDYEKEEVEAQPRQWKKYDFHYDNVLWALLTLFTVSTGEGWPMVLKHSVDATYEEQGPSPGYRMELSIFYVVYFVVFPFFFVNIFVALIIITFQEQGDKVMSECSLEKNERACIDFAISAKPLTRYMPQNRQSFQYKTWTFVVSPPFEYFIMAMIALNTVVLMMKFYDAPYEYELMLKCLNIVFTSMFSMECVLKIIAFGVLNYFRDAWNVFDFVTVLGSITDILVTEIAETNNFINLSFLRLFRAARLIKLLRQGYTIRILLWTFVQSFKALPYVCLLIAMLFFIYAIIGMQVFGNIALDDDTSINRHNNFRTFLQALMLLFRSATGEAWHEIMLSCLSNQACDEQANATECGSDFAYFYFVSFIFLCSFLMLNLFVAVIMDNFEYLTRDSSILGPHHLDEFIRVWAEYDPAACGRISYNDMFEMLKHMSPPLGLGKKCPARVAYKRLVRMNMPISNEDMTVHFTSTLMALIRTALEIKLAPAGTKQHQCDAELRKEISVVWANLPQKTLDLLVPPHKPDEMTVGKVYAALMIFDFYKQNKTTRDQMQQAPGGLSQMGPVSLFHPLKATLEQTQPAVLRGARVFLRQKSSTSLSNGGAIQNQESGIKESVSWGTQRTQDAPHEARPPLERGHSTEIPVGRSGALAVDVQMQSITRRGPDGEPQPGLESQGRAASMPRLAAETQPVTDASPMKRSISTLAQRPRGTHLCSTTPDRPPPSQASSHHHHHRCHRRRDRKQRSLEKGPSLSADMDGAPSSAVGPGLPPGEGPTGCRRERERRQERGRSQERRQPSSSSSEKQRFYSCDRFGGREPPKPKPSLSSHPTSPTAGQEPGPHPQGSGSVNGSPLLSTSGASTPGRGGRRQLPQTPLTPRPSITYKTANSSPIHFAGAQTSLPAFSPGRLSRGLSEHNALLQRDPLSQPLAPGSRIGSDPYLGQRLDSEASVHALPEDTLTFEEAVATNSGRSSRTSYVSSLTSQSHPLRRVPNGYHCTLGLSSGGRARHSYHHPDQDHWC
T1 sequence (P54289 25-956 partner limits assumed): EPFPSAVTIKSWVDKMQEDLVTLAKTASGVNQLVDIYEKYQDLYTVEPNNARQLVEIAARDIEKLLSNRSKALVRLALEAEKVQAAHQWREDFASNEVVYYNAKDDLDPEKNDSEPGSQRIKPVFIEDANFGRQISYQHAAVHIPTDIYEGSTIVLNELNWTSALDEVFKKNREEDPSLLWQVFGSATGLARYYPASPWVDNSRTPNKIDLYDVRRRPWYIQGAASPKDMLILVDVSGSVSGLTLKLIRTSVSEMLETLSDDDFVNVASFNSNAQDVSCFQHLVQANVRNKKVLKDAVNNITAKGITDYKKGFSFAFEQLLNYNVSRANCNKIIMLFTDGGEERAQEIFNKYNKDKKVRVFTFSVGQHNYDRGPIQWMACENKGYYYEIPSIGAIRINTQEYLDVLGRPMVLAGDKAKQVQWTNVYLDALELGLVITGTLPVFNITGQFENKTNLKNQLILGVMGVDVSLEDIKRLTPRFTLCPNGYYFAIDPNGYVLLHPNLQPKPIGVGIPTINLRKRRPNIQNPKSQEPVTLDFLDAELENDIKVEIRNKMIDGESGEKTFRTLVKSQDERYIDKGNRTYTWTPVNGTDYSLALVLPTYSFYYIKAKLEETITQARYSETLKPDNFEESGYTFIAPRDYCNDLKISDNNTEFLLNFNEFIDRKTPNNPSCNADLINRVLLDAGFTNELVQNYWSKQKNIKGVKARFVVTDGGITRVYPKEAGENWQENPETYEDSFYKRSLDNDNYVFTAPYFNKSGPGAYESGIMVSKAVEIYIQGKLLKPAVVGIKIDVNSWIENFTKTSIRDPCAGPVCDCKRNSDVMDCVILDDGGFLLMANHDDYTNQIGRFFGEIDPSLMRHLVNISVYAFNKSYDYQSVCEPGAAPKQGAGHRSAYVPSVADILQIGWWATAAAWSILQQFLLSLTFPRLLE
T1 sequence (P54289 957-1103 partner limits assumed): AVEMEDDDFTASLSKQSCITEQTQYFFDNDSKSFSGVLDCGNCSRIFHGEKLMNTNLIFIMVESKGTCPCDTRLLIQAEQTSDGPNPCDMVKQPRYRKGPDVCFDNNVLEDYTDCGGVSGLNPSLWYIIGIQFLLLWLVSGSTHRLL
T1 sequence (P54284 whole entry partner): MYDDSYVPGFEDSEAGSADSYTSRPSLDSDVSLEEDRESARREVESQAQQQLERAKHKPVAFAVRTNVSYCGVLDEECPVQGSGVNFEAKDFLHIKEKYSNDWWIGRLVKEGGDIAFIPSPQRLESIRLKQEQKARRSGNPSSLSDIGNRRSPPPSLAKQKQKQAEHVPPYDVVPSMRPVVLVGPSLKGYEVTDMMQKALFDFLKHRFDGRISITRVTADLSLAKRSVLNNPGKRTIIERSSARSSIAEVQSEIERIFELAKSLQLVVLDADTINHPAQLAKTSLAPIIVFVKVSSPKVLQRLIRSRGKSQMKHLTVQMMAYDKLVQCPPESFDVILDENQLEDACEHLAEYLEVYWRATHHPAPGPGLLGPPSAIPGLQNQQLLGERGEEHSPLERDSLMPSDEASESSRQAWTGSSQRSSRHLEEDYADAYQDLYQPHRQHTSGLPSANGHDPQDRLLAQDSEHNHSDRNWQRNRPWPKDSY
Description: FLIPR calcium mobilization assay for N-type calcium channel. As to conditions: calcium mobilization in vitro assay; differentiated IMR32 cells. The format is cell-based. As to the method: Unless noted otherwise, cell culture reagents were purchased from Mediatech of Herndon, Md. IMR32 cells (American Type Culture Collection, ATCC, Manassas, Va.) were routinely cultured in growth medium consisting of minimum essential medium containing 10% fetal bovine serum (FBS, Hyclone, Logan, Utah), 100 U/mL penicillin, 100 μg/mL streptomycin, 2 mM L-glutamine, 1 mM sodium pyruvate, and 1× MEM non-essential amino acids. 80-90% confluent flasks of cells were differentiated using the following differentiation medium: Growth medium plus 1 mM dibutyryl cyclic AMP (Sigma, St. Louis, Mo.), and 2.5 μM bromodeoxyuridine (Sigma). Cells were differentiated for 8 days by replacing differentiation medium every 2-3 days.
FLIPR Calcium Mobilization Assay for N-Type Calcium Channel.
One day prior to performing this assay, differentiated IMR32 cells were treated with 1× CellStripper, and seeded on poly-D-lysine-coated 96-well clear-bottom black plates (Becton Dickinson, Franklin Lakes, N.J.) at 200,000 cells/well. On the day of the assay, the cell plates were washed with IMR32 buffer (127 mM NaCl, 1 mM KCl, 2 mM MgCl2, 700 μM NaH2PO4, 5 mM CaCl2, 5 mM NaHCO3, 8 mM HEPES, 10 mM glucose, pH 7.4), then pre-stimulated with KCl and loaded as follows: 0.05 mL of IMR32 buffer, 0.05 mL of each compound tested diluted in IMR32 buffer containing 20 μM nitrendipine (Sigma), and 0.1 mL KCl dissolved in IMR32 buffer, plus Fluo-4 were added (3 μM final concentration, Molecular Probes, Eugene, Oreg.). Final test compound concentrations ranged from about 846 pM to about 17 μM, final nitrendipine concentration was 5 μM, and final KCl concentration was 90 mM. After 1 hour, the cells were washed twice with 0.05 mL of each compound is tested in nitrendipine-containing IMR32 buffer (no KCl or Fluo-4), and then replaced with 0.1 mL of each compound tested in nitrendipine-containing IMR32 buffer. Plates were then transferred to a Fluorimetric Imaging Plate Reader (FLIPR^96, Molecular Devices, Inc., Sunnyvale, Calif.) for assay. The FLIPR measured basal Fluo-4 fluorescence for 315 seconds (i.e., 5 minutes and 15 seconds), then added 0.1 mL KCl agonist dissolved in IMR32 buffer and measured fluorescence for another 45 seconds. Final test compound concentrations on the cells after FLIPR read ranged from about 846 pM to about 17 μM, final nitrendipine concentration was 5 μM, and final KCl concentration was 90 mM. Data were collected over the entire time course and analyzed using Excel, Graph Pad Prism (version 3.02, Graph Pad, San Diego, Calif.), or an in-house non-linear regression analysis software.
For the molecule `CC(C)N(C1CCN(C(=O)C(N)Cc2cccc3ccccc23)CC1)S(=O)(=O)c1cccc(C(F)(F)F)c1` (centres unmarked) [N-[1-(2-amino-3-naphthalen-1-yl-propionyl)-piperidin-4-yl]-N-isopropyl-3-trifluoromethyl-benzenesulfonamide], the negative-log IC50 (pIC50) was 5.59.
Under `O=C(CN1CCC(N(C2CC2)S(=O)(=O)c2cccc(C(F)(F)F)c2)CC1)Nc1cc(C(F)(F)F)ccc1Cl` [Compound 77, N-(2-Chloro-5-trifluoromethylphenyl)-2-{4-[cyclopropyl-(3-trifluoromethylbenzenesulfonyl)amino]-piperidin-1-yl}-acetamide] stands 5.18.
In the case of `CN(C1CCN(CC(=O)Nc2cc(C(F)(F)F)cc(C(F)(F)F)c2)CC1)S(=O)(=O)c1ccccc1` [Compound 68, 2-[4-(Benzenesulfonyl-methyl-amino)-piperidin-1-yl]-N-(3,5-bis-trifluoromethylphenyl)-acetamide], the pIC50 is 5.80.
On to `CC(C)N(C1CCN(C(=O)CNc2ccc(F)cc2)CC1)S(=O)(=O)c1cccc(C(F)(F)F)c1` [Compound 17, N-{1-[2-(4-Fluorophenylamino)acetyl]-piperidin-4-yl}-N-isopropyl-3-trifluoromethylbenzenesulfonamide], for which the negative logarithm of the IC50 (pIC50) was 5.77.
Turning to `CC(C)NC(=O)C(=O)N1CCC(N(C2CC2)S(=O)(=O)c2cccc(C(F)(F)F)c2)CC1` [2-{4-[cyclopropyl-(3-trifluoromethylbenzenesulfonyl)-amino]-piperidin-1-yl}-N-isopropyl-2-oxo-acetamide], the pIC50 was 5.49.
Under `O=C(CN1CCC(N(C2CC2)S(=O)(=O)c2cccc(C(F)(F)F)c2)CC1)Nc1ccc(C(F)(F)F)cc1C(F)(F)F` [Compound 72, N-(2,4-Bis-trifluoromethylphenyl)-2-{4-[cyclopropyl-(3-trifluoromethylbenzenesulfonyl)amino]-piperidin-1-yl}-acetamide] stands less than 4.70; under `CC(C)N(C1CCN(CC(N)=O)CC1)S(=O)(=O)c1cccc(C(F)(F)F)c1` [Compound 33, 2-{4-[Isopropyl-(3-trifluoromethylbenzenesulfonyl)amino]-piperidin-1-yl}-acetamide], 4.70 to 5.00.
Under `COCCNCC(=O)N1CCC(N(C(C)C)S(=O)(=O)c2cccc(C(F)(F)F)c2)CC1` [Compound 95, N-Isopropyl-N-{1-[2-(2-methoxy-ethylamino)acetyl]-piperidin-4-yl}-3-trifluoromethylbenzenesulfonamide] stands 5.65; under `CC(C)N(C1CCN(C(=O)C(N)Cc2csc3ccccc23)CC1)S(=O)(=O)c1cccc(C(F)(F)F)c1` (centres unmarked) [N-[1-(2-amino-3-benzo[b]thiophen-3-yl-propionyl)-piperidin-4-yl]-N-isopropyl-3-trifluoromethyl-benzenesulfonamide], 6.33; under `Cc1ccc(NC(=O)CN2CCC(N(C(C)C)S(=O)(=O)c3cccc(C(F)(F)F)c3)CC2)cc1` [Compound 42e, 2-{4-[Isopropyl-(3-trifluoromethylbenzenesulfonyl)amino]-piperidin-1-yl}-N-p-tolyl-acetamide], 5.79.
With `Cc1cccc(S(=O)(=O)N(C2CC2)C2CCN(CC(=O)NCC(C)C)CC2)c1` [Compound 35, 2-{4-[Cyclopropyl-(toluene-3-sulfonyl)amino]-piperidin-1-yl}-N-isobutylacetamide], the pIC50 was 5.23.
On to `CC(C)CNC(=O)CN1CCC(N(C2CC2)S(=O)(=O)c2ccccc2)CC1` [Compound 37, 2-[4-(Benzenesulfonyl-cyclopropylamino)-piperidin-1-yl]-N-isobutylacetamide], for which the pIC50 is less than 4.70.
Regarding `Cc1cccc(S(=O)(=O)N(C2CC2)C2CCN(CC(=O)Nc3cc(C(F)(F)F)cc(C(F)(F)F)c3)CC2)c1` [Compound 69, N-(3,5-Bis-trifluoromethylphenyl)-2-{4-[cyclopropyl-(toluene-3-sulfonyl)amino]-piperidin-1-yl}-acetamide], the pIC50 was 5.42.
Under `CC(C)N(C1CCN(C(=O)C(C)(C)N)CC1)S(=O)(=O)c1cccc(C(F)(F)F)c1` [N-[1-(2-amino-2-methyl-propionyl)-piperidin-4-yl]-N-isopropyl-3-trifluoromethylbenzenesulfonamide] stands 5.03.
As for `O=C(CC(=O)N1CCC(N(C2CC2)S(=O)(=O)c2cccc(C(F)(F)F)c2)CC1)Nc1ccc(F)cc1F` [Compound 27, 3-{4-[Cyclopropyl-(3-trifluoromethylbenzenesulfonyl)amino]-piperidin-1-yl}-N-(2,4-difluorophenyl)-3-oxo-propionamide], the pIC50 is 5.88.
Under “2-[4-(Benzenesulfonylmethylamino)-piperidin-1-yl]-N-(4-fluorophenyl)acetamide [Compound 47]” stands 5.53.
For the molecule `COc1ccc(Cl)cc1NC(=O)CN1CCC(N(C2CC2)S(=O)(=O)c2cccc(C(F)(F)F)c2)CC1` [Compound 82, N-(5-Chloro-2-methoxyphenyl)-2-{4-[cyclopropyl-(3-trifluoromethyl-benzenesulfonyl)amino]-piperidin-1-yl}-acetamide], the negative-log IC50 (pIC50) is 5.40.
Under `CN(C1CCN(C(=O)CC(=O)Nc2ccc(F)cc2F)CC1)S(=O)(=O)c1cccc(C(F)(F)F)c1` [Compound 28, N-(2,4-Difluorophenyl)-3-{4-[methyl-(3-trifluoromethylbenzene-sulfonyl)amino]-piperidin-1-yl}-3-oxo-propionamide] stands 5.31.
Under `O=C(CN1CCC(NS(=O)(=O)c2cccc(C(F)(F)F)c2)CC1)Nc1ccc(F)cc1` [Compound 116, N-(4-Fluorophenyl)-2-[4-(3-trifluoromethylbenzenesulfonylamino)-piperidin-1-yl]-acetamide] stands 5.91; under `CC(C)CNC(=O)CCN1CCC(N(C(C)C)S(=O)(=O)c2cccc(C(F)(F)F)c2)CC1` [Compound 107c, N-Isobutyl-3-{4-[isopropyl-(3-trifluoromethylbenzenesulfonyl)amino]-piperidin-1-yl}-propionamide], 5.70.
Consider `COc1ccc(NCCC(=O)N2CCC(N(C(C)C)S(=O)(=O)c3cccc(C(F)(F)F)c3)CC2)cc1` [N-isopropyl-N-{1-[3-(4-methoxy-phenylamino)-propionyl]-piperidin-4-yl}-3-trifluoromethyl-benzenesulfonamide], for which the negative logarithm of the IC50 (pIC50) is 6.00.
Under `CC(C)CNC(=O)CN1CCC(N(C2CC2)S(=O)(=O)c2cccc(F)c2)CC1` [Compound 36, 2-{4-[Cyclopropyl-(3-fluorobenzenesulfonyl)amino]-piperidin-1-yl}-N-isobutylacetamide] stands 5.10; under `CN(C1CCN(CC(=O)Nc2nc3ccc(F)cc3s2)CC1)S(=O)(=O)c1cccc(C(F)(F)F)c1` [Compound 65], 5.67; under `CC(C)N(C1CCN(C(=O)CCNc2cccc(F)c2)CC1)S(=O)(=O)c1cccc(C(F)(F)F)c1` [N-{1-[3-(3-fluoro-phenylamino)-propionyl]-piperidin-4-yl}-N-isopropyl-3-trifluoromethyl-benzenesulfonamide], 5.98.
Under `O=C(CN1CCC(N(C2CC2)S(=O)(=O)c2ccc(Cl)cc2)CC1)Nc1ccc(F)cc1` [Compound 49, 2-{4-[(4-Chlorobenzenesulfonyl)cyclopropylamino]-piperidin-1-yl}-N-(4-fluorophenyl)acetamide] stands 5.88.
Under `O=C(CN1CCC(NS(=O)(=O)c2cccc(C(F)(F)F)c2)CC1)Nc1ccc(C(F)(F)F)c(C(F)(F)F)c1` [N-(3,4-bis-trifluoromethylphenyl)-2-{4-[(3-trifluoromethylbenzenesulfonyl)amino]-piperidin-1-yl}-acetamide] stands 5.91.
In the case of `COc1ccc(CNCC(=O)N2CCC(N(C3CC3)S(=O)(=O)c3ccccc3)CC2)cc1` [Compound 97, N-Cyclopropyl-N-{1-[2-(4-methoxy-benzylamino)acetyl]-piperidin-4-yl}-benzenesulfonamide], the negative logarithm of the IC50 (pIC50) was 5.63.
Under `CCC(NCc1ccccc1)C(=O)N1CCC(N(C(C)C)S(=O)(=O)c2cccc(C(F)(F)F)c2)CC1` (centres unmarked) [Compound 91, N-[1-(2-Benzylaminobutyryl)-piperidin-4-yl]-N-isopropyl-3-trifluoromethylbenzenesulfonamide] stands 5.94; under `NCCN1CCC(N(C2CC2)S(=O)(=O)c2cccc(C(F)(F)F)c2)CC1` [Compound 114, N-[1-(2-Aminoethyl)-piperidin-4-yl]-N-cyclopropyl-3-trifluoromethylbenzenesulfonamide], 5.83.

Source of the values: patent publication US8791264B2 (Purdue Pharma L.P., priority 2006, dated 2014).
